The supplement of paper PMC12076712
± gives the standard deviation of the averaged measurements.

Legend:
KSR1 = molecular target: T1, KSR1 (UniProt Q8IVT5); experiment: pIC50, kinobeads binding competition; conditions: cell material: Jurkat lysate
T1 sequence (whole entry): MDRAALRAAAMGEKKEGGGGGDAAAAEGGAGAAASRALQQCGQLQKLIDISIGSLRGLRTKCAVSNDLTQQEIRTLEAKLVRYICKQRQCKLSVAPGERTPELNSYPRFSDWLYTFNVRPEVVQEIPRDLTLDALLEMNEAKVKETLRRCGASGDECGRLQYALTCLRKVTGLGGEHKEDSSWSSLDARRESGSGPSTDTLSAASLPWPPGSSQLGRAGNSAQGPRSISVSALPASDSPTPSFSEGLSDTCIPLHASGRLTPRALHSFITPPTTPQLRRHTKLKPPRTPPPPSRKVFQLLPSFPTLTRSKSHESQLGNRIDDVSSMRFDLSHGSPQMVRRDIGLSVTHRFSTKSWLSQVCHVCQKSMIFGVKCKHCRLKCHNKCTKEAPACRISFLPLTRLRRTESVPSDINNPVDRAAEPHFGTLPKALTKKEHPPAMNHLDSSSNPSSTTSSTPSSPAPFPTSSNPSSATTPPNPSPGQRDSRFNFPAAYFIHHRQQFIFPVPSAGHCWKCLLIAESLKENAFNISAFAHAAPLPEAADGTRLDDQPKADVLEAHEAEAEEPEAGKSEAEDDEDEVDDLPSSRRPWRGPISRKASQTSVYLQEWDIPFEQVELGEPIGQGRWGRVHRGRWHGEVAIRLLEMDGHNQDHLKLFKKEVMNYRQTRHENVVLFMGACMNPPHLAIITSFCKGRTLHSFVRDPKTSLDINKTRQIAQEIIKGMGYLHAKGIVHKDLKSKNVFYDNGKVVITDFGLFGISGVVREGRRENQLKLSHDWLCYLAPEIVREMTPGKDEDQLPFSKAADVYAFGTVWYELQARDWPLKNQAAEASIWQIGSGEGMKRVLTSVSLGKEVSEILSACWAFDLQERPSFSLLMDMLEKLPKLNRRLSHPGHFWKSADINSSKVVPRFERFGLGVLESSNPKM

PIK3R4 = PIK3R4 (UniProt Q99570); experiment: pIC50, kinobeads binding competition; conditions: cell material: Jurkat lysate
PBK = molecular target: T2, PBK (UniProt Q96KB5); experiment: pIC50, kinobeads binding competition; conditions: cell material: Jurkat lysate
T2 sequence (whole entry): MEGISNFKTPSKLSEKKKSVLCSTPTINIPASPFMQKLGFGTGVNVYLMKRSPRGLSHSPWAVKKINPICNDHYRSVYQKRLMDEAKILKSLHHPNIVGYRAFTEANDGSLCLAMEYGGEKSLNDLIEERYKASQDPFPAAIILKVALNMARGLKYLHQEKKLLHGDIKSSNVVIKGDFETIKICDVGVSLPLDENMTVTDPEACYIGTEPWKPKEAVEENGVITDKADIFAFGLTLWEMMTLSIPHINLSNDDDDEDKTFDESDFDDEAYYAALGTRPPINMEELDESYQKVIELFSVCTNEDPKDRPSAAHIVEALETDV

CDK10 = CDK10 (UniProt Q15131); experiment: pIC50, kinobeads binding competition; conditions: cell material: Jurkat lysate
MAST3 = MAST3 (UniProt O60307); experiment: pIC50, kinobeads binding competition; conditions: cell material: Jurkat lysate
UniProt Q5TCX8 = experiment: pIC50, kinobeads binding competition; conditions: cell material: Jurkat lysate
PIP4K2A = molecular target: T3, PIP4K2A (UniProt P48426); experiment: pIC50, kinobeads binding competition; conditions: cell material: Jurkat lysate
T3 sequence (whole entry): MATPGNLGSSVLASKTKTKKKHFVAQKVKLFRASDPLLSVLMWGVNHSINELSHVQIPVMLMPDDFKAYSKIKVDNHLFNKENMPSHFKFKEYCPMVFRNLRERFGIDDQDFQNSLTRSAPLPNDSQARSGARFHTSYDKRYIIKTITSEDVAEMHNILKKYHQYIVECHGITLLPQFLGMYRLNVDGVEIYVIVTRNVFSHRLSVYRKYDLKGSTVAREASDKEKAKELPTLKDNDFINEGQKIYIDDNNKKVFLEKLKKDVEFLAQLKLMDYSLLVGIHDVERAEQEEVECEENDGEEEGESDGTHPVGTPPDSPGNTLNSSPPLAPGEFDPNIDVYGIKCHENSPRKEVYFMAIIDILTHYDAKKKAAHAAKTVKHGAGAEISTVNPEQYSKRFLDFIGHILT

MASTL = molecular target: T4, MASTL (UniProt Q96GX5); experiment: pIC50, kinobeads binding competition; conditions: cell material: Jurkat lysate
T4 sequence (whole entry): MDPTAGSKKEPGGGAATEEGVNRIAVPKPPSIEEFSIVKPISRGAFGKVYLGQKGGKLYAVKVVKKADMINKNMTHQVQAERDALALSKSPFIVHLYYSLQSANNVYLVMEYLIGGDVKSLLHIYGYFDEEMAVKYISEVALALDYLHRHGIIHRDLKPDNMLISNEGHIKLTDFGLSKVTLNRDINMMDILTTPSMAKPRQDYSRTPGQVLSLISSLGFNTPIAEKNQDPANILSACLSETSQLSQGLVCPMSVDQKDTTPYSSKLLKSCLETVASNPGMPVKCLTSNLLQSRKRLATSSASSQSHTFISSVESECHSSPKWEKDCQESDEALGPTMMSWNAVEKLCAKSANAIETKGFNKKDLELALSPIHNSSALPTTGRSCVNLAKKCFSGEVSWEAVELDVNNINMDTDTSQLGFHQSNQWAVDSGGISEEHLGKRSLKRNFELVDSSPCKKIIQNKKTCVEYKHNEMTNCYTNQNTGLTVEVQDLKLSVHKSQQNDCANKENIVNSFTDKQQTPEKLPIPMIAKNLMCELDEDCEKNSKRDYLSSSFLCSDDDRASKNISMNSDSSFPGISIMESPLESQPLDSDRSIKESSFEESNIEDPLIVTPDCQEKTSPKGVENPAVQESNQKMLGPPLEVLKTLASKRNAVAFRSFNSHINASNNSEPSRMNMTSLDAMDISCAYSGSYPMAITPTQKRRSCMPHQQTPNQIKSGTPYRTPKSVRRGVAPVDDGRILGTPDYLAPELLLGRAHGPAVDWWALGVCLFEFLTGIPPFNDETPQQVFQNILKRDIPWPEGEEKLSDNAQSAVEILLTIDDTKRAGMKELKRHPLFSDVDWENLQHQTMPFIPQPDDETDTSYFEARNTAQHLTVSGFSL

MAST4 = MAST4 (UniProt O15021); experiment: pIC50, kinobeads binding competition; conditions: cell material: Jurkat lysate
MAPKAPK3 = MAPKAPK3 (UniProt Q16644); experiment: pIC50, kinobeads binding competition; conditions: cell material: Jurkat lysate
TRRAP = TRRAP (UniProt Q9Y4A5); experiment: pIC50, kinobeads binding competition; conditions: cell material: Jurkat lysate
PDIK1L = PDIK1L (UniProt Q8N165); experiment: pIC50, kinobeads binding competition; conditions: cell material: Jurkat lysate
SPR = SPR (UniProt P35270); experiment: pIC50, competition of probe 3 labelling in live cells; conditions: cell material: Jurkat cells
Sequence of SPR (P35270 whole entry, looked up): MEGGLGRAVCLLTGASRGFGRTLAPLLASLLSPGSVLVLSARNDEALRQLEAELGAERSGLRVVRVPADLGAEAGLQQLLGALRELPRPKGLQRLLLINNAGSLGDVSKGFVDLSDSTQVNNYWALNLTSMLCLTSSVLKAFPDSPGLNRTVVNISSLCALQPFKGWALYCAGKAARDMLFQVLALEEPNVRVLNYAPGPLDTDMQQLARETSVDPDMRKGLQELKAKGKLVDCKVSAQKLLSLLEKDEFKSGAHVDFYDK

Sequence of PIK3R4 (Q99570 whole entry): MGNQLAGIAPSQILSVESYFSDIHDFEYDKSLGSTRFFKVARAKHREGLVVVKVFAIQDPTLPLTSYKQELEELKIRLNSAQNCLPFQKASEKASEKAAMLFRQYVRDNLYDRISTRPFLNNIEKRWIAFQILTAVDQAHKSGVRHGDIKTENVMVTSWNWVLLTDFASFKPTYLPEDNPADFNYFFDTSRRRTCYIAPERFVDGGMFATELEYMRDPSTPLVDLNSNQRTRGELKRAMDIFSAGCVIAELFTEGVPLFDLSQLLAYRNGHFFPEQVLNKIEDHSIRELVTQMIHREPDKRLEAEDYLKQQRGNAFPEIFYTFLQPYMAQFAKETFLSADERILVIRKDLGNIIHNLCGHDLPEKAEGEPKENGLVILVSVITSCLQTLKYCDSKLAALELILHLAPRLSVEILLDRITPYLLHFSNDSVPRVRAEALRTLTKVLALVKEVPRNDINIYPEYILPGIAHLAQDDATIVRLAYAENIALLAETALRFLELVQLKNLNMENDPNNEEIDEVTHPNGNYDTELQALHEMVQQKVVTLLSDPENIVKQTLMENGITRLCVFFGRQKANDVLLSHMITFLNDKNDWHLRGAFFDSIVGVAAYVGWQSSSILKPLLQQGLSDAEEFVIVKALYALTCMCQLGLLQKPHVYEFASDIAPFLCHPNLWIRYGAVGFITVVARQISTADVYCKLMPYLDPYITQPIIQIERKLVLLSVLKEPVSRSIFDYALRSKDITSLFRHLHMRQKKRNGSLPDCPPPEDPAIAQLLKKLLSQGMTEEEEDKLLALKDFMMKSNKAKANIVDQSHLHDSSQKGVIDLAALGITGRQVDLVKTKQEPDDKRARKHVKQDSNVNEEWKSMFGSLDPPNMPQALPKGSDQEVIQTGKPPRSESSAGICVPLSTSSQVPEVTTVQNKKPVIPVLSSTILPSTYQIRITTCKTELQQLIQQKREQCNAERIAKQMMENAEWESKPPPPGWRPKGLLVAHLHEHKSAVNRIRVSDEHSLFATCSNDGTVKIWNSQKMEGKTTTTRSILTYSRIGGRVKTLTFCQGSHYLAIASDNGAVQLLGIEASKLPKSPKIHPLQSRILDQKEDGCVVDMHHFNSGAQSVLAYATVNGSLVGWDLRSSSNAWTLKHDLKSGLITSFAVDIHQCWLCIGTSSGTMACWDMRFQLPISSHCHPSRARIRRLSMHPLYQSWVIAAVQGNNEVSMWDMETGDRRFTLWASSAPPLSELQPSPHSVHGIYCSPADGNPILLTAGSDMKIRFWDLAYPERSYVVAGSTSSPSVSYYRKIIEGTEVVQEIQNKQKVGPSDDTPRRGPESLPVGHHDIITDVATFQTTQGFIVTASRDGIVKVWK
Sequence of MAPKAPK3 (Q16644 whole entry, looked up): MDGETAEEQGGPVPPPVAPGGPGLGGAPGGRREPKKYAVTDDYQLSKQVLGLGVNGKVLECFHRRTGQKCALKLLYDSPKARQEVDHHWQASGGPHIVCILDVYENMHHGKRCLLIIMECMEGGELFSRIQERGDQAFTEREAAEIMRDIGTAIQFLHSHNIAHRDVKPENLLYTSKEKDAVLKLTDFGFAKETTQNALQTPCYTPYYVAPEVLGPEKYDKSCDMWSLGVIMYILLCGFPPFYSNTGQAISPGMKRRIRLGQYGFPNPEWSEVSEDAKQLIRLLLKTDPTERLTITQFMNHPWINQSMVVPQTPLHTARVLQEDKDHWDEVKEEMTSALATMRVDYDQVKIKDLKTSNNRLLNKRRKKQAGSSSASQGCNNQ
Sequence of PDIK1L (Q8N165 whole entry): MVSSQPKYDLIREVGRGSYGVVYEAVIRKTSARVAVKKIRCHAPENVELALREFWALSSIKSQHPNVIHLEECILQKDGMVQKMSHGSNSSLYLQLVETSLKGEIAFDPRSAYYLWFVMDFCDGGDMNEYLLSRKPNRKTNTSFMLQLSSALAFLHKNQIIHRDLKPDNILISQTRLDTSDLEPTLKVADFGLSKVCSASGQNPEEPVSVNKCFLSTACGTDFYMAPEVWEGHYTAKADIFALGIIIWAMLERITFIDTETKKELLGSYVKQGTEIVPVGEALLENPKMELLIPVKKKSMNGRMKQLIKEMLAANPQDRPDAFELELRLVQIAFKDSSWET
Sequence of MAST4 (O15021 whole entry): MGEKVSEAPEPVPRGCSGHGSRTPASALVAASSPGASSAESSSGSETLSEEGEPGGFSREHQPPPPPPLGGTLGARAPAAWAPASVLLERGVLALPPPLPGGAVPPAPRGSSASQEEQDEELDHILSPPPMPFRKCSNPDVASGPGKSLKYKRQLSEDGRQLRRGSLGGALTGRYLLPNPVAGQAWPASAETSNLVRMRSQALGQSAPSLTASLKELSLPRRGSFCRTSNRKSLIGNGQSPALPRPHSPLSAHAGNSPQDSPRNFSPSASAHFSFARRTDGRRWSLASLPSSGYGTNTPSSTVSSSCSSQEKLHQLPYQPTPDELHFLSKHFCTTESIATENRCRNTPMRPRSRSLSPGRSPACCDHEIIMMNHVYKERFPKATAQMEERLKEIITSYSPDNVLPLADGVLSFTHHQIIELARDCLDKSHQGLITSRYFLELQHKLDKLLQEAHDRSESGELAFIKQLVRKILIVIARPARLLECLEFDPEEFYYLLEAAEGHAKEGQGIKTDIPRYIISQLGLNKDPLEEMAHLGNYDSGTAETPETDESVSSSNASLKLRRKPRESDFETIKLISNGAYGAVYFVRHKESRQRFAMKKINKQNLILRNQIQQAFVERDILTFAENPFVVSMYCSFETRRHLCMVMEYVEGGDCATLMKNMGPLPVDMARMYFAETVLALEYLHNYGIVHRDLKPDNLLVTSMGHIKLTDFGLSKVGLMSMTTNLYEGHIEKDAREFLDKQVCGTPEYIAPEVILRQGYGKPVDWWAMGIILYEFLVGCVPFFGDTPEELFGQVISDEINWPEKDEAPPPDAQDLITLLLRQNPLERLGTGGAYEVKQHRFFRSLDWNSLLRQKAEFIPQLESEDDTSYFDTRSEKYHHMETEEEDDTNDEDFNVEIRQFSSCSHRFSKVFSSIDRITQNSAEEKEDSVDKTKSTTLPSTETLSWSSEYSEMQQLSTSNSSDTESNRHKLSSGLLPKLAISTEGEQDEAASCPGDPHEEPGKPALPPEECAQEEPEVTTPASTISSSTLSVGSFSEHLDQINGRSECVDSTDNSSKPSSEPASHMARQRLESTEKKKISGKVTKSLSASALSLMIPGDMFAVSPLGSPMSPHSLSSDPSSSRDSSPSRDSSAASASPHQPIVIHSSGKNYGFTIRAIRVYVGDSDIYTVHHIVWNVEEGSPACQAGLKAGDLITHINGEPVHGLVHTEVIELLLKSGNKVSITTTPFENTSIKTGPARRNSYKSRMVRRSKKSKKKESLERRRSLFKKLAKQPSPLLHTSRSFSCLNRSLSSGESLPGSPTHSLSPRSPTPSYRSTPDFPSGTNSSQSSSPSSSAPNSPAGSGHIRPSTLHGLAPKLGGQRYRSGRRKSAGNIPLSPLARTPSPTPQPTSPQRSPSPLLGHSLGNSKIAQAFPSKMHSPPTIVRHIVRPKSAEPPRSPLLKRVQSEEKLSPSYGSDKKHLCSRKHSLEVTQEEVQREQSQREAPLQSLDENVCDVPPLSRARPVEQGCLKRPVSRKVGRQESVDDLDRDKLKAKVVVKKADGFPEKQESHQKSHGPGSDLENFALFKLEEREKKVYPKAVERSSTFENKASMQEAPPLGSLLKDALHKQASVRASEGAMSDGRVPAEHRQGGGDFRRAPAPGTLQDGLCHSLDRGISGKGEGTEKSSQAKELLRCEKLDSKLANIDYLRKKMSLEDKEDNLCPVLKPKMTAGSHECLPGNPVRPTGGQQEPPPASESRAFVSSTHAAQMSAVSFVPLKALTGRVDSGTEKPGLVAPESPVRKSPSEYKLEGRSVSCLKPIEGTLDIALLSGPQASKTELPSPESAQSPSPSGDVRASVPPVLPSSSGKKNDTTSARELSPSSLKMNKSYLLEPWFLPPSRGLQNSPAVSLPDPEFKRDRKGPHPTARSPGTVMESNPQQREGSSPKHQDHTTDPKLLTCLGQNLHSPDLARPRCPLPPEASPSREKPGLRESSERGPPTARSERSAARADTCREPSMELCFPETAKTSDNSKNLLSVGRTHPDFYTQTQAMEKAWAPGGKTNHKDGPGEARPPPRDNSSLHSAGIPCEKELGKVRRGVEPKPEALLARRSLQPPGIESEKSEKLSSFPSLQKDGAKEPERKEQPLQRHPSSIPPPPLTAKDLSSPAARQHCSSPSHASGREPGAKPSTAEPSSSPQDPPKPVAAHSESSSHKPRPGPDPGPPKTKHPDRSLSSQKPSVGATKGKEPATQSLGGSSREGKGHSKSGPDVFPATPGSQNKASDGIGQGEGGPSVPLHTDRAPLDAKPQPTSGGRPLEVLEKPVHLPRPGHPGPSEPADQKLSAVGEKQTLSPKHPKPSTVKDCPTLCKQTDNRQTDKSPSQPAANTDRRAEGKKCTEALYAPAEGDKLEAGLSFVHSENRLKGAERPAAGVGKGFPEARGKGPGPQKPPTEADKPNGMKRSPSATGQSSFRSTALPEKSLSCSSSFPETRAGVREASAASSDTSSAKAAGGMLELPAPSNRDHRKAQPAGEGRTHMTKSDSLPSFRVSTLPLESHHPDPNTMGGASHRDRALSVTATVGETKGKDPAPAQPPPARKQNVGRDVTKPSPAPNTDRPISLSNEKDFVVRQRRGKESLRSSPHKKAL

pIC50 (KSR1)	pIC50 (PIK3R4)	pIC50 (PBK)	pIC50 (CDK10)	pIC50 (MAST3)	pIC50 (UniProt Q5TCX8)	pIC50 (PIP4K2A)	pIC50 (MASTL)	pIC50 (MAST4)	pIC50 (MAPKAPK3)	pIC50 (TRRAP)	pIC50 (PDIK1L)	pIC50 (SPR)	SMILES
4.72	< 4.52	< 4.52	< 4.52	< 4.52	< 4.52	< 4.52	< 4.52	< 4.52	6.74	< 4.52	4.89 ± 0.099	–	Cc1nc(Nc2ncc(C(=O)Nc3c(C)cccc3Cl)s2)cc(N2CCN(CCO)CC2)n1 [dasatinib]
–	–	–	–	–	–	–	–	–	–	–	–	7.61 ± 0.34	Cc1c(C(=O)N2CCN(CC(F)(F)F)CC2)cnn1-c1nn2cccc2c(=O)[nH]1 [QM385]
